Patent US20260273110A1, “Radiolabeled Fibroblast Activation Protein Inhibitors and Methods of Making Same” (REGENTS OF THE UNIVERSITY OF MICHIGAN, priority 2023, published 2026)
Like-named read-outs stand apart in the source and are kept apart here. Values belong to the molecule of their own block, whether it stands above or below them.

How the values were obtained:
FAP = biological target: T1, FAP (Homo sapiens, UniProt Q12884); settings: cited from earlier work; for tumor to kidney ratio: [^177Lu] agent
T1 sequence (Q12884 1-760): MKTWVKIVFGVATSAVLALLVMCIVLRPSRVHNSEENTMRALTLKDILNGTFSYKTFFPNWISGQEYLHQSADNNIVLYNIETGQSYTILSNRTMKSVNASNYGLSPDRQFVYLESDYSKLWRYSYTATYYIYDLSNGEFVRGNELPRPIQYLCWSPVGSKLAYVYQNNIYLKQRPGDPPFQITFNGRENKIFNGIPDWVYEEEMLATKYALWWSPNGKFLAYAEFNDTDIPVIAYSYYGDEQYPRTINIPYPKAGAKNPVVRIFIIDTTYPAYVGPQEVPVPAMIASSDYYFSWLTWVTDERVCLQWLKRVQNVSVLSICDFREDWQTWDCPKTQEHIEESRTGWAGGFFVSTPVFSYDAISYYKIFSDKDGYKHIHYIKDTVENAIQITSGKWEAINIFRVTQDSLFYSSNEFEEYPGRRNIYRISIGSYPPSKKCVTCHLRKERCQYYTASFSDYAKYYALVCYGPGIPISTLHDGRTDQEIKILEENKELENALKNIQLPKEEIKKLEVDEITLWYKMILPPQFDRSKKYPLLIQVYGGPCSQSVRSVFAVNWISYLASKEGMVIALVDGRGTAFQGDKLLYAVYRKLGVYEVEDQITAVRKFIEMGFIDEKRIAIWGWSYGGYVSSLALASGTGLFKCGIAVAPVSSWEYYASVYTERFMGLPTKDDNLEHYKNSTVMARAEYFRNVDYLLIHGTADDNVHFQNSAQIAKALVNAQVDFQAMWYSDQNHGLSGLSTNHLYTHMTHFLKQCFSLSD

[1] = Ib-3 uptake and dosimetry studies in rats; human estimated dosimetry (OLINDA/EXM 2.0); assay type: in vivo, Sprague-Dawley rats; settings: estimates of human dosimetry from rat distribution data
Experimental: Uptake and dosimetry studies of (S)—N-(2-(2-cyanopyrrolidin-1-yl)-2-oxoethyl)-6-fluroquinoline-4-carboxamide (Ib-3) were performed in Sprague-Dawley rats (n=4, 2 males, 2 females) at 10, 20, 60, and 120 min. Rats were anesthetized with isoflurane, and (S)—N-(2-(2-cyanopyrrolidin-1-yl)-2-oxoethyl)-6-fluroquinoline-4-carboxamide (Ib-3) was administered via tail vein injections. At the appropriate time points, animals were euthanized, and their tissues procured for measuring radioactivity. Radioactivity was measured in a well counter and expressed as decay-corrected percentage injected dose per gram of tissue. Radiation dosimetry was calculated from the distribution data and was used to determine estimates of human dosimetry with OLINDA/EXM 2.0 software, or equivalent.
Human estimated dosimetry is given in Table 1, below, in mSv/MBq injected for each organ for males, females, and gender averaged: […]

Compound: CN(CCCN1CCN(C(=O)CN2CCN(CC(=O)O)CCN(CC(=O)O)CCN(CC(=O)O)CC2)CC1)c1ccc2nccc(C(=O)NCC(=O)N3CC(F)(F)C[C@H]3C#N)c2c1 [FAPI-46]
- tumor to background ratio relative to FAP-2286 (FAP; [^68Ga] agent, early time points): 3-5 times
- tumor to kidney ratio (FAP; 3 h): 21.0
- tumor to kidney ratio (FAP; 24 hours): 12.7
- tumor to kidney ratio (FAP; 72 h): 8

- Human estimated dosimetry: Adrenals ([1]; Females): 1.02E−02 mSv/MBq
- Human estimated dosimetry: Brain ([1]; Females): 3.83E−03 mSv/MBq
- Human estimated dosimetry: Breasts ([1]; Females): 1.23E−02 mSv/MBq
- Human estimated dosimetry: Effective Dose ([1]; Females): 1.39E−02 mSv/MBq
- Human estimated dosimetry: Esophagus ([1]; Females): 1.29E−02 mSv/MBq
- Human estimated dosimetry: Eyes ([1]; Females): 6.79E−03 mSv/MBq
- Human estimated dosimetry: Gallbladder Wall ([1]; Females): 1.64E−02 mSv/MBq
- Human estimated dosimetry: Heart Wall ([1]; Females): 1.46E−02 mSv/MBq
- Human estimated dosimetry: Kidneys ([1]; Females): 1.48E−02 mSv/MBq
- Human estimated dosimetry: Left colon ([1]; Females): 2.18E−02 mSv/MBq
- Human estimated dosimetry: Liver ([1]; Females): 9.11E−03 mSv/MBq
- Human estimated dosimetry: Lungs ([1]; Females): 9.36E−03 mSv/MBq
- Human estimated dosimetry: Osteogenic Cells ([1]; Females): 1.90E−02 mSv/MBq
- Human estimated dosimetry: Ovaries ([1]; Females): 1.40E−02 mSv/MBq
- Human estimated dosimetry: Pancreas ([1]; Females): 1.19E−02 mSv/MBq
- Human estimated dosimetry: Rectum ([1]; Females): 1.94E−02 mSv/MBq
- Human estimated dosimetry: Red Marrow ([1]; Females): 1.58E−02 mSv/MBq
- Human estimated dosimetry: Right colon ([1]; Females): 1.99E−02 mSv/MBq
- Human estimated dosimetry: Salivary Glands ([1]; Females): 1.34E−02 mSv/MBq
- Human estimated dosimetry: Small Intestine ([1]; Females): 2.75E−02 mSv/MBq
- Human estimated dosimetry: Spleen ([1]; Females): 1.00E−02 mSv/MBq
- Human estimated dosimetry: Stomach Wall ([1]; Females): 1.69E−02 mSv/MBq
- Human estimated dosimetry: Thymus ([1]; Females): 1.50E−02 mSv/MBq
- Human estimated dosimetry: Thyroid ([1]; Females): 1.38E−02 mSv/MBq
- Human estimated dosimetry: Total Body ([1]; Females): 1.49E−02 mSv/MBq
- Human estimated dosimetry: Urinary Bladder Wall ([1]; Females): 3.42E−02 mSv/MBq
- Human estimated dosimetry: Uterus ([1]; Females): 1.49E−02 mSv/MBq
- Human estimated dosimetry: Adrenals ([1]; Gender Averaged): 9.65E−03 mSv/MBq
- Human estimated dosimetry: Brain ([1]; Gender Averaged): 3.31E−03 mSv/MBq
- Human estimated dosimetry: Breasts ([1]; Gender Averaged): 1.23E−02 mSv/MBq
- Human estimated dosimetry: Effective Dose ([1]; Gender Averaged): 1.25E−02 mSv/MBq
- Human estimated dosimetry: Esophagus ([1]; Gender Averaged): 1.21E−02 mSv/MBq
- Human estimated dosimetry: Eyes ([1]; Gender Averaged): 6.09E−03 mSv/MBq
- Human estimated dosimetry: Gallbladder Wall ([1]; Gender Averaged): 1.49E−02 mSv/MBq
- Human estimated dosimetry: Heart Wall ([1]; Gender Averaged): 1.26E−02 mSv/MBq
- Human estimated dosimetry: Kidneys ([1]; Gender Averaged): 1.52E−02 mSv/MBq
- Human estimated dosimetry: Left colon ([1]; Gender Averaged): 1.99E−02 mSv/MBq
- Human estimated dosimetry: Liver ([1]; Gender Averaged): 8.47E−03 mSv/MBq
- Human estimated dosimetry: Lungs ([1]; Gender Averaged): 8.27E−03 mSv/MBq
- Human estimated dosimetry: Osteogenic Cells ([1]; Gender Averaged): 1.84E−02 mSv/MBq
- Human estimated dosimetry: Ovaries ([1]; Gender Averaged): 1.40E−02 mSv/MBq
- Human estimated dosimetry: Pancreas ([1]; Gender Averaged): 1.10E−02 mSv/MBq
- Human estimated dosimetry: Prostate ([1]; Gender Averaged): 1.66E−02 mSv/MBq
- Human estimated dosimetry: Rectum ([1]; Gender Averaged): 1.78E−02 mSv/MBq
- Human estimated dosimetry: Red Marrow ([1]; Gender Averaged): 1.43E−02 mSv/MBq
- Human estimated dosimetry: Right colon ([1]; Gender Averaged): 1.82E−02 mSv/MBq
- Human estimated dosimetry: Salivary Glands ([1]; Gender Averaged): 1.26E−02 mSv/MBq
- Human estimated dosimetry: Small Intestine ([1]; Gender Averaged): 2.59E−02 mSv/MBq
- Human estimated dosimetry: Spleen ([1]; Gender Averaged): 9.10E−03 mSv/MBq
- Human estimated dosimetry: Stomach Wall ([1]; Gender Averaged): 1.55E−02 mSv/MBq
- Human estimated dosimetry: Testes ([1]; Gender Averaged): 7.86E−03 mSv/MBq
- Human estimated dosimetry: Thymus ([1]; Gender Averaged): 1.34E−02 mSv/MBq
- Human estimated dosimetry: Thyroid ([1]; Gender Averaged): 1.29E−02 mSv/MBq
- Human estimated dosimetry: Total Body ([1]; Gender Averaged): 1.37E−02 mSv/MBq
- Human estimated dosimetry: Urinary Bladder Wall ([1]; Gender Averaged): 4.15E−02 mSv/MBq
- Human estimated dosimetry: Uterus ([1]; Gender Averaged): 1.49E−02 mSv/MBq
- Human estimated dosimetry: Adrenals ([1]; Males): 9.10E−03 mSv/MBq
- Human estimated dosimetry: Brain ([1]; Males): 2.79E−03 mSv/MBq
- Human estimated dosimetry: Effective Dose ([1]; Males): 1.10E−02 mSv/MBq
- Human estimated dosimetry: Esophagus ([1]; Males): 1.13E−02 mSv/MBq
- Human estimated dosimetry: Eyes ([1]; Males): 5.39E−03 mSv/MBq
- Human estimated dosimetry: Gallbladder Wall ([1]; Males): 1.33E−02 mSv/MBq
- Human estimated dosimetry: Heart Wall ([1]; Males): 1.06E−02 mSv/MBq
- Human estimated dosimetry: Kidneys ([1]; Males): 1.56E−02 mSv/MBq
- Human estimated dosimetry: Left colon ([1]; Males): 1.80E−02 mSv/MBq
- Human estimated dosimetry: Liver ([1]; Males): 7.83E−03 mSv/MBq
- Human estimated dosimetry: Lungs ([1]; Males): 7.17E−03 mSv/MBq
- Human estimated dosimetry: Osteogenic Cells ([1]; Males): 1.78E−02 mSv/MBq
- Human estimated dosimetry: Pancreas ([1]; Males): 1.00E−02 mSv/MBq
- Human estimated dosimetry: Prostate ([1]; Males): 1.66E−02 mSv/MBq
- Human estimated dosimetry: Rectum ([1]; Males): 1.62E−02 mSv/MBq
- Human estimated dosimetry: Red Marrow ([1]; Males): 1.27E−02 mSv/MBq
- Human estimated dosimetry: Right colon ([1]; Males): 1.65E−02 mSv/MBq
- Human estimated dosimetry: Salivary Glands ([1]; Males): 1.17E−02 mSv/MBq
- Human estimated dosimetry: Small Intestine ([1]; Males): 2.42E−02 mSv/MBq
- Human estimated dosimetry: Spleen ([1]; Males): 8.20E−03 mSv/MBq
- Human estimated dosimetry: Stomach Wall ([1]; Males): 1.40E−02 mSv/MBq
- Human estimated dosimetry: Testes ([1]; Males): 7.86E−03 mSv/MBq
- Human estimated dosimetry: Thymus ([1]; Males): 1.18E−02 mSv/MBq
- Human estimated dosimetry: Thyroid ([1]; Males): 1.20E−02 mSv/MBq
- Human estimated dosimetry: Total Body ([1]; Males): 1.25E−02 mSv/MBq
- Human estimated dosimetry: Urinary Bladder Wall ([1]; Males): 4.87E−02 mSv/MBq
Compound: N#C[C@@H]1CCCN1C(=O)CNC(=O)c1ccnc2ccc([18F])cc12 [Ib-3, (S)—N-(2-(2-cyanopyrrolidin-1-yl)-2-oxoethyl)-6-[18F]fluoroquinoline-4-carboxamide]
